# Measured values: patent US10426768B2, “Subcutaneous delivery of polymer conjugates of therapeutic agents” (Serina Therapeutics, Inc., priority 2011, dated 2019)
# Like-named read-outs stand apart in the source and are kept apart here.
# Columns and labels:
# [1] = oral; cited from earlier work
# [2] = Pharmacokinetics of rotigotine in rat after intravenous and subcutaneous administration of POZ conjugates; assay type: in vivo, male Sprague-Dawley rats; details: for PK profile of plasma rotigotine, in words / Cmax values of plasma rotigotine: rat; for PK profile of plasma rotigotine, in words: SC compared with IV; for Cmax values of plasma rotigotine: at 12 hours, dosed SC at 1.6 mg/kg
# Method: In order to study the pharmacokinetics of the POZ conjugates described herein, in vivo studies were conducted with male Sprague-Dawley rats. Twenty-seven male cannulated Sprague-Dawley rats (300-350 g) were divided into nine groups of 3 animals per group. Groups I-II received a single subcutaneous (SC) dose (right flank) of POZ acetyl rotigotine (as described in Example 6) at equivalent doses of 1.6 and 6.4 mg/kg. […] Group V received a single subcutaneous (SC) dose (right flank) of rotigotine hydrochloride at an equivalent dose of 0.5 mg/kg. Groups VI-VII received a single intravenous (IV) dose (lateral tail vein) of POZ acetyl rotigotine (as described in Example 6) at equivalent doses of 0.5 and 2.0 mg/kg. […] The test articles were dissolved in 5% dextrose injection and filtered prior to each injection. Serial blood samples were obtained from each intravenously dosed animal through the cannulated catheter, at time intervals of end of injection, 12, 24, 48, 96 and 168 hours. The time intervals for the subcutaneously dosed animals were 6, 12, 24, 48, 96 and 168 hours. The blood was processed to collect the plasma which was stored at −70° C. before analysis. The plasma samples were extracted with acetonitrile using d3-rotigotine as an internal standard and the analytes in the extract were assayed by chromatographic analysis on LC/MS-MS system using a C-18 reverse phase column with 0.9 um silica coreshell (Accucore™, Thermo Scientific, 30×2.1 mm ID and 2.6 micron particle size). The mobile phase was ammonium formate 10 mM pH3.0 (solvent A); and 90% acetonitrile, 10% methanol, and 0.1% formic acid (solvent B), eluting at 0.6 mL/min.
# 6-OHDA Rat Model [3] = assay: Rotational test in the 6-OHDA rat model, single subcutaneous dose; assay type: in vivo, female Sprague-Dawley rats
# Method: (§1) In order to study the efficacy of the POZ conjugates described herein, in vivo studies were conducted with female Sprague-Dawley rats. Female Sprague-Dawley rats (275-350 g) were used in the study. Each animal underwent stereotaxic surgery and received a unilateral lesion of the right nigrostriatal pathway via injection of 12.5 μg of 6-hydroxydopamine (6-OHDA) into a single site in the medial forebrain bundle. Rats were monitored over two weeks and underwent behavioral assessment (on day −7) via the cylinder test. Animals lacking overt behavioral asymmetry ([…] ipsilateral forelimb use) were excluded from the study. The rats were them randomly assigned to one of six treatment groups (each N=8). […] The rats received a single subcutaneous dose (2 mL/kg) of vehicle (5% dextrose) or test compound dissolved in 5% dextrose.
# (§2) Each group of animals (A-F as described above) were independently assessed rat for rotational behavior and forelimb symmetry on day 1, day 2, day 5 and day 9. In the rotational test, the animals were placed in an automated rotometer apparatus (MedAssociates, USA) and the net number of rotations contraversive to the lesion were recorded over a period of 6 hours on each day. In the forelimb symmetry test, the rats are placed in a clear glass cylinder without top (15 cm diameter×45 cm tall). The number of times each paw touches the side of the cylinder during an individual rear is recorded over a 10 minute observation on each day. The first limb in any rear to touch the wall is scored a single point. If both limbs contact within 0.4 s of each other, then this is scored as a ‘both’. All subsequent exploratory movements about the wall using that limb are scored independently until the other limb contacts the wall with weight support. Alternating stepping motions involving both paws one after the other receive a single score for both. The net number of contralateral touches are calculated and considered a favorable response.
# 6-OHDA Rat Model [4] = assay: Forelimb asymmetry (cylinder) test in the 6-OHDA rat model, single subcutaneous dose; assay type: in vivo, female Sprague-Dawley rats
# Method: as §1, §2
# [5] = rats; cited from earlier work
# [6] = man; cited from earlier work
# [7] = Water solubility of the produced polyoxazoline conjugate; assay type: physicochemical
# [8] = Pharmacokinetics of rotigotine in monkey after subcutaneous administration of POZ conjugates; assay type: in vivo, female macaques (Cynomolgus monkeys); details: for average terminal plasma half-life (t½) of rotigotine: one subcutaneous dose, 1.5 or 4.5 mg/kg rotigotine equivalents
# Method: The pharmacokinetics of the POZ conjugates of rotigotine was measured in normal, treatment-naïve female macaques. Animals were randomly assigned into four treatment groups, each N=3. […] The test articles were dissolved in 5% dextrose injection and filtered prior to each injection. Serial venous blood samples were obtained from each animal prior to administration of experimental agents on Day 1 and subsequently at 15 min, 30 min, 1 h, 2 h, 4 h, 6 h, 8 h, 24 h, 48 h, 96 h, 192 h, 240 h and 336 h. The blood was processed to collect the plasma which was stored at −70° C. before analysis. These plasma samples were processed and assayed by chromatographic analysis on LC/MS-MS system as described in Example 31.
Compound,"terminal plasma half-life (t½) of rotigotine ([2]; rat plasma, IV or SC dosing) [h]","PK profile of plasma rotigotine, in words [2]",Cmax values of plasma rotigotine [2] [ng/mL],"Net number of contraversive turns/6 h period (Average ± SEM; n = 8) (6-OHDA Rat Model [3]; 1.6 mg/kg SC, Day 1) [turns/6 h period]","Net number of contraversive turns/6 h period (Average ± SEM; n = 8) (6-OHDA Rat Model [3]; 1.6 mg/kg SC, Day 5) [turns/6 h period]","Net ipsiversive forelimb use as a percentage of total forelimb use (Average ± SEM; n = 8) (6-OHDA Rat Model [4]; 1.6 mg/kg SC, Day 2) [%]","Net ipsiversive forelimb use as a percentage of total forelimb use (Average ± SEM; n = 8) (6-OHDA Rat Model [4]; 1.6 mg/kg SC, Day 5) [%]","water solubility, in words [7]",average terminal plasma half-life (t½) of rotigotine [8] [h],other results
N[C@@H](Cc1ccc(O)c(O)c1)C(=O)O [levodopa],,,,,,,,,,bioavailability [1]: less than 10%
"CCCN(CCc1cccs1)[C@H]1CCc2c(O)cccc2C1 [Rotigotine, S(−)-2-(N-propyl-N-2-thienylethylamino)-5-hydroxytetralin, reference compound]",,,,,,,,,,"half-life ([2]; male, Sprague-Dawley, subcutaneous, 0.5 mg/kg, rat plasma, IV or SC dosing, read-out: terminal plasma half-life (t½) of rotigotine (converted)): 2.8 h; Net number of contraversive turns/6 h period (Average ± SEM; n = 8) (6-OHDA Rat Model [3]; 0.5 mg/kg SC, Day 1): 983 ± 405 turns/6 h period; Net number of contraversive turns/6 h period (Average ± SEM; n = 8) (6-OHDA Rat Model [3]; 0.5 mg/kg SC, Day 5): −49 ± 9 turns/6 h period; Net number of contraversive turns/6 h period (Average ± SEM; n = 8) (6-OHDA Rat Model [3]; 3.0 mg/kg SC, Day 1): 1570 ± 312 turns/6 h period; Net number of contraversive turns/6 h period (Average ± SEM; n = 8) (6-OHDA Rat Model [3]; 3.0 mg/kg SC, Day 5): −39 ± 15 turns/6 h period; Net ipsiversive forelimb use as a percentage of total forelimb use (Average ± SEM; n = 8) (6-OHDA Rat Model [4]; 0.5 mg/kg SC, Day 2): 60 ± 13%; Net ipsiversive forelimb use as a percentage of total forelimb use (Average ± SEM; n = 8) (6-OHDA Rat Model [4]; 0.5 mg/kg SC, Day 5): 94 ± 6%; Net ipsiversive forelimb use as a percentage of total forelimb use (Average ± SEM; n = 8) (6-OHDA Rat Model [4]; 3.0 mg/kg SC, Day 2): 9 ± 13%; Net ipsiversive forelimb use as a percentage of total forelimb use (Average ± SEM; n = 8) (6-OHDA Rat Model [4]; 3.0 mg/kg SC, Day 5): 85 ± 8%; oral and intraperitoneal bioavailability [5]: less than 10%; half-life [6]: 2.5 h"
H-[(Acetyl-Rotigotine)10(EOZ)190]—COOH 20K [POZ acetyl rotigotine],16,essentially the same PK profile when delivered either SC or IV,48,872 ± 232,−14 ± 14,50 ± 13,85 ± 10,good water solubility,,
H-[(α-Methyl-Acetyl-Rotigotine)10(EOZ)190]—COOH 20K [POZ alpha methyl acetyl rotigotine],,,,,,,,good water solubility,9,
H-[(Propionyl-Rotigotine)10(EOZ)190]—COOH 20K [POZ propyl rotigotine],60,markedly prolonged PK profile that is near “zero order” kinetics,6,1408 ± 286,68 ± 60,0 ± 14,31 ± 13,good water solubility,60,"PK profile of plasma rotigotine, in words ([8]; subcutaneous): markedly prolonged PK profile that is near “zero order” kinetics; Net number of contraversive turns/6 h period (Average ± SEM; n = 8) (6-OHDA Rat Model [3]; 6.4 mg/kg SC, Day 1): 1272 ± 405 turns/6 h period; Net number of contraversive turns/6 h period (Average ± SEM; n = 8) (6-OHDA Rat Model [3]; 6.4 mg/kg SC, Day 5): 5142 ± 777 turns/6 h period; rotational activity, in words (6-OHDA Rat Model [3]; day 5, high dose of 6.4 mg/kg): marked and continuous contraversive rotations; Net ipsiversive forelimb use as a percentage of total forelimb use (Average ± SEM; n = 8) (6-OHDA Rat Model [4]; 6.4 mg/kg SC, Day 2): −2 ± 26%; Net ipsiversive forelimb use as a percentage of total forelimb use (Average ± SEM; n = 8) (6-OHDA Rat Model [4]; 6.4 mg/kg SC, Day 5): −6 ± 16%; forelimb use activity, in words (6-OHDA Rat Model [4]; day 5, both doses of 1.6 and 6.4 mg/kg): marked and continuous ipsiversive forelimb use"
